Reference: patent US5723719A, “Transgenic mouse as model for diseases involving dopaminergic dysfunction” (Health Research Inc., priority 1995, dated 1998)
Where two headings read alike, the source gives them in different places.

How the values were obtained:
dopamine D2 receptor = molecular target: T1, dopamine D2 receptor (Mus musculus, UniProt P61168); test: Radioligand binding assay of dopamine D2 receptor binding sites in striatum; conditions: mean ± s.e.m., read-out: KD (dissociation constant between ligand and receptor)
T1 construct: from tissue; host or cells: striatum of homozygous transgenic (TgX15, chakragati) mice and normal heterozygous litter-mates
Experimental: Radioligand binding assays were performed to analyze the density of dopamine D2 receptor binding sites in the striatum of mice of the present invention and normal heterozygous mice. […] The density of dopamine D2 binding sites are assayed by the ability of the striata to maximally bind ^[MUT]-methylspiperone (Bmax). Dissociation constants (KD) between the ligand and receptor were also measured.

6-OHDA-lesioned rodents = conditions: cited from earlier work
chakragati mice = test: Effect of apomorphine treatment on chakragati mice; type: in vivo, mouse; conditions: chakragati mice versus normal control mice
[1] = rats unilaterally depleted of dopamine by 6-hydroxydopamine lesions (Ungerstedt 1971)

T1 sequence (P61168 whole entry): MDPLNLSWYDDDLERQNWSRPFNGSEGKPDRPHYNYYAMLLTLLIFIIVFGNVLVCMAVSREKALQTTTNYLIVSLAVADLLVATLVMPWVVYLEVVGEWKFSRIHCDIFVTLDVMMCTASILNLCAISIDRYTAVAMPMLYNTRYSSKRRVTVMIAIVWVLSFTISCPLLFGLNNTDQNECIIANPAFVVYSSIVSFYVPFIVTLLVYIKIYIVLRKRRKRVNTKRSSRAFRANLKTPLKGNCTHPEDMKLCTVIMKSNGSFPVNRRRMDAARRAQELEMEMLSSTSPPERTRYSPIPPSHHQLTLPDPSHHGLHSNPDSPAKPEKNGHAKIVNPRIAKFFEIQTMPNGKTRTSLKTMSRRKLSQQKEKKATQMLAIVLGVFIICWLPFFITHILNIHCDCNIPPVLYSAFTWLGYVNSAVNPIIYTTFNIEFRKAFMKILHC

CN1CN(c2ccccc2)C2(CCN(CCCC(=O)c3ccc(F)cc3)CC2)C1=O [^3 H-N-methylspiperone]
Kd (dopamine D2 receptor; striata of heterozygous litter-mates): 0.073 ± 0.008 nM | Kd (dopamine D2 receptor; striata of homozygous transgenic mice): 0.081 ± 0.013 nM

CC(N)Cc1ccccc1 (stereo not drawn) [amphetamine]
Circling behavior elicited (6-OHDA-lesioned rodents; [1]): high rates of circling behavior can be elicited

CN1CCc2cccc3c2[C@H]1Cc1ccc(O)c(O)c1-3 [apomorphine]
Circling behavior elicited (6-OHDA-lesioned rodents; 6-OHDA-lesioned rodents): elicits robust circling behavior | Circling behavior elicited (6-OHDA-lesioned rodents; [1]): high rates of circling behavior can be elicited | Effect of treatment on chakragati mice compared to normal control mice (circling) (chakragati mice): not significantly differ compared to the normal control mice
